Measured values: patent publication US11571421B2, “GABAA positive allosteric modulator compounds for treatment of itch and/or dermatitis” (NeuroCycle Therapeutics, Inc., priority 2018, dated 2023)

System: Oxazolone-Induced Dermatitis Model in male C57BL/6 mice
Experiment: Repeat dose Oxazolone-Induced Dermatitis Model (Example 10)
Format: in vivo
Experimental: Male C57BL/6 Mice (8-10 weeks) are used in the study. Mice are housed one per cage and are maintained at controlled environmental conditions with 12-h light and dark cycles. The temperature and humidity of the room are maintained between 22±3° C. and 55±5%, respectively. The maximum and minimum temperature and relative humidity in the experimental rooms are recorded once daily.
NCT10004 phosphate (adjusted with salt correction factor) is weighed into a clean glass container. 0.5% Methyl Cellulose (MC) is added, and the resulting mixture is mixed well using mild vortexing and stirred for 40 minutes to provide a homogeneous suspension.
PF-06372865 is weighed into a clean mortar. […]
Animals are dosed with respective treatment groups for fourteen consecutive Days (From Day 17-Day 30). To quantify any changes in the severity of skin lesions, Animals are assigned dermatitis scores prior to dosing and daily there after starting from Day 17 and ending on Day 30.
Skin lesion are observed and scored as follows: Hemorrhage/erythema, dryness/scaling and hyperplasia are scored as 0 (none), 1 (mild), 2 (moderate) or 3 (severe) once per day resulting in a composite score between 0 and 9. […]
Animals are observed by an observer blind to the treatment group for a period of 210 minutes post Oxazolone application. Number of scratching bouts directed to the nape between 15 to 210 min after dosing are recorded. […]

Compound: CCn1cnc2c(-c3ccc(F)c(-c4ccc(S(=O)(=O)CC)cc4OC)c3)cnnc21 [PF-06372865]
- skin lesions (lesion score) (1 mg/kg BID PO, Day 17-Day 30): decreases skin lesions comparable to the NCT10004
- scratching bouts (1 mg/kg PO, 15-210 minutes): reduces scratching bouts
